Results taken from ChEMBL document CHEMBL4673352, “Discovery of AZD4573, a Potent and Selective Inhibitor of CDK9 That Enables Short Duration of Target Engagement for the Treatment of Hematological Malignancies” (J Med Chem, 2020).
Values after ≈ are worked out from the molar mass of the structure shown.

Experiments:
[1] = Drug level in human liver microsomes treated with (1S,3R)-3-Acetamido-N-(5-chloro-4-(4,5,6,7-tetrahydropyrazolo-[1,5-a]pyridin-3-yl)pyridin-2-yl)cyclohexanecarboxamide at 10 uM measured after 1 hr in presence of NADPH by LC-UV-MS analysis; type: ADME, Microsome
[2] = Drug level in human hepatocytes treated with (1S,3R)-3-Acetamido-N-(5-chloro-4-(4,5,6,7-tetrahydropyrazolo-[1,5-a]pyridin-3-yl)pyridin-2-yl)cyclohexanecarboxamide; type: ADME, cell-based, Hepatocyte
[3] = Intrinsic clearance in human cryopreserved hepatocytes assessed per million cells […]; type: ADME, cell-based, Hepatocyte; details: read-out: CLH
[4] = Intrinsic clearance in human liver microsome; type: ADME, microsomes; details: for microsomal CLint: liver microsomes, read-out: CLH
[5] = molecular target: T1, Cyclin-dependent kinase 9 (Homo sapiens, UniProt P50750); assay: Inhibition of CDK9 in human MCF7 cells assessed as reduction in RNA Polymerase 2 CTD phosphorylation at Ser2 residues measured after 6 hrs by immunofluorescence assay; type: cell-based
[6] = Solubility of compound in phosphate buffer at pH 7.4 using dried form of sample; type: physicochemical
[7] = molecular target: CDK9/cyclin T1 (Homo sapiens, UniProt P50750); assay: Inhibition of recombinant full length human N-terminal GST-fused CDK9 (1 to 372 residues)/His-tagged CyclinT1 (1 to 726 residues) expressed in baculovirus infected insect cells using FITC-X-GSRTPMY-NH2 as substrate preincubated for 10 mins followed by MgCl2 addition and measured after 90 mins in presence of 5 mM ATP by mobility shift assay
[8] = molecular target: T1, Cyclin-dependent kinase 9; assay: Inhibition of CDK9 in human MV4-11 cells assessed as induction of caspase-3/7 activation measured after 6 hrs followed by Caspase-glo reagent based assay; type: cell-based
[9] = Lipophilicity, log D of compound in buffer/octanol at pH 7.4 by shake flask method; type: physicochemical
[10] = Intrinsic clearance in rat cryopreserved hepatocytes assessed per million cells […]; type: ADME, cell-based, Hepatocyte; details: for hepatocyte CLint: cryopreserved hepatocytes, read-out: CLH
[11] = phosphate buffer, read-out: solubility

T1 sequence (P50750 whole entry): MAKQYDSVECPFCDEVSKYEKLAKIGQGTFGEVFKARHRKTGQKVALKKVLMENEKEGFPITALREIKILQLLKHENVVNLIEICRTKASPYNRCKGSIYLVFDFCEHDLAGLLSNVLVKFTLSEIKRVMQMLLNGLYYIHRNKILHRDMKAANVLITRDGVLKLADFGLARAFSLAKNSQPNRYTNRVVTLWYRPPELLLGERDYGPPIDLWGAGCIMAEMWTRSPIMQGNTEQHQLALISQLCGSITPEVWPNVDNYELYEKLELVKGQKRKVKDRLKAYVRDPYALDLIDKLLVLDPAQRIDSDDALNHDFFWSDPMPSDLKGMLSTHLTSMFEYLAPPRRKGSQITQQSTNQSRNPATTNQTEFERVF
Sequence of CDK9/cyclin T1 (O60563 whole entry, the tested form may be a part): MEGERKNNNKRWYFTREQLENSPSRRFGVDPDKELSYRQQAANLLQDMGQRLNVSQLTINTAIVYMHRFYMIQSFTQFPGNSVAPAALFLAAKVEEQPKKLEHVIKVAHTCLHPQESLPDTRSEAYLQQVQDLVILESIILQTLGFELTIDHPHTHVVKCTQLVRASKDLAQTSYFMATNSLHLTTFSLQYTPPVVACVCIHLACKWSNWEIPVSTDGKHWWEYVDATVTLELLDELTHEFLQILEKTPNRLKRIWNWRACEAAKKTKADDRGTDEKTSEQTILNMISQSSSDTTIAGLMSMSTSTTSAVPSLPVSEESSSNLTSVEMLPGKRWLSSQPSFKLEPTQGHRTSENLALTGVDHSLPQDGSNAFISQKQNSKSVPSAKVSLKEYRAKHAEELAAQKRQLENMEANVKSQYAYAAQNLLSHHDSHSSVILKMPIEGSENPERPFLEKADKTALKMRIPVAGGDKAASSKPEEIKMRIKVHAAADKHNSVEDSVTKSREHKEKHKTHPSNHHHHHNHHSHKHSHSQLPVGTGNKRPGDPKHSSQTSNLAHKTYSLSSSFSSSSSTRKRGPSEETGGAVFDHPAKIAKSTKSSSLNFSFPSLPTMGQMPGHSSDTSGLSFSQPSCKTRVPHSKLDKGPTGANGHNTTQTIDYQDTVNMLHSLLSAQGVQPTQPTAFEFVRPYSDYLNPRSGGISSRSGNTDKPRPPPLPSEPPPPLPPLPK
Sequence of CDK9/cyclin T1 (P50750 whole entry, the tested form may be a part): as the sequence (P50750 whole entry) above

Structure (SMILES)	Drug uptake [1]	Drug uptake [2]	hepatocyte CLint [3]	microsomal CLint [4]	IC50 [5]	solubility [6, 11]	IC50 [7]	EC50 [8]	logD [9]	hepatocyte CLint [10]	solubility ([6]; buffer)	CLH ([10]; hepatocytes)	CLH ([4]; microsomes)
CC(=O)N[C@@H]1CCC[C@H](C(=O)Nc2cc(-c3cn[nH]c3CCCC(=O)O)c(Cl)cn2)C1	Active	Active											
CC(=O)N[C@@H]1CCC[C@H](C(=O)Nc2cc(-c3cnn4c3CCCC4O)c(Cl)cn2)C1 (stereo not given in full)	Active	Active	33 µL/min/1e6 cells	18 µL/min/mg	720 nM								
CC(=O)N[C@@H]1CCC[C@H](C(=O)Nc2cc(-c3cnn4ccccc34)c(Cl)cn2)C1					140 nM	45 µM (≈ 18.5 µg/mL)	61 nM	150 nM	3.6				
CC(=O)N[C@@H]1CCC[C@H](C(=O)Nc2cc(-c3cnc4n3CC(C)(C)C4)c(Cl)cn2)C1			2.5 µL/min/1e6 cells	63 µL/min/mg		280 µM (≈ 120 µg/mL)			3.6	28 µL/min/1e6 cells			
CC(=O)N[C@@H]1CCC[C@H](C(=O)Nc2cc(-c3nnn4c3CCCC4)c(Cl)cn2)C1					> 2600 nM	530 µM (≈ 221 µg/mL)	4400 nM		2				
CC(=O)N[C@@H]1CCC[C@H](C(=O)Nc2cc(-c3cnn(C)c3C)c(Cl)cn2)C1			< 1 µL/min/1e6 cells	3.3 µL/min/mg	440 nM	960 µM (≈ 374 µg/mL)	270 nM	560 nM	2.6	10 µL/min/1e6 cells			
CC(=O)N[C@@H]1CCC[C@H](C(=O)Nc2cc(-c3cnc(C)n3C(C)C)ccn2)C1				3.6 µL/min/mg	920 nM	660 µM (≈ 253 µg/mL)	380 nM	660 nM	1.9	7.4 µL/min/1e6 cells			
CC(=O)N[C@@H]1CCC[C@H](C(=O)Nc2cc(-c3cnn4c3CCCC4)c(F)cn2)C1				< 3 µL/min/mg	100 nM	> 1000 µM		160 nM	2.9	73 µL/min/1e6 cells			
CC(=O)N[C@@H]1CCC[C@H](C(=O)Nc2cc(-c3cnn4c3CC(C)(C)C4)c(C#N)cn2)C1			< 1 µL/min/1e6 cells	26 µL/min/mg	150 nM	380 µM (≈ 160 µg/mL)		140 nM	3.2	47 µL/min/1e6 cells			
CC(=O)N[C@@H]1CCC[C@H](C(=O)Nc2cc(-c3cn[nH]c3CC(C)(C)CO)c(Cl)cn2)C1			< 1 µL/min/1e6 cells	24 µL/min/mg	> 2300 nM								
CC(=O)N[C@@H]1CCC[C@H](C(=O)Nc2cc(-c3cnc(C)n3C)c(Cl)cn2)C1					> 3000 nM	> 1000 µM	5300 nM		2.2				
CC(=O)N[C@@H]1CCC[C@H](C(=O)Nc2cc(-c3cnn4c3CC(C)C4)c(Cl)cn2)C1 (stereo in doubt; 28)				13 µL/min/mg	36 nM		26 nM	92 nM	3.4	97 µL/min/1e6 cells	79 µM (≈ 32.9 µg/mL)		
CC(=O)N[C@@H]1CCC[C@H](C(=O)Nc2cc(-c3cnn4c3CC(C)(C)CC4)ccn2)C1			4.3 µL/min/1e6 cells	29 µL/min/mg	48 nM	640 µM (≈ 262 µg/mL)		39 nM	3.1	35 µL/min/1e6 cells			
CC(=O)N[C@@H]1CCC[C@H](C(=O)Nc2cc(-c3cnn4c3CCCC4)ccn2)C1				< 3 µL/min/mg	520 nM	730 µM (≈ 278 µg/mL)	230 nM	440 nM	2.4	33 µL/min/1e6 cells			
CC(=O)N[C@@H]1CCC[C@H](C(=O)Nc2cc(-c3cnn4c3CN(C)CC4)c(Cl)cn2)C1				< 3 µL/min/mg	800 nM	870 µM (≈ 375 µg/mL)	220 nM	910 nM	2.1	7.7 µL/min/1e6 cells			
CC(=O)N[C@@H]1CCC[C@H](C(=O)Nc2cc(-c3cnn4c3NCCC4)c(Cl)cn2)C1				6.2 µL/min/mg	860 nM	860 µM (≈ 359 µg/mL)		670 nM	2.4	10 µL/min/1e6 cells			

Structure (SMILES)	Drug uptake [1]	Drug uptake [2]	hepatocyte CLint [3]	microsomal CLint [4]	IC50 [5]	solubility [6, 11]	IC50 [7]	EC50 [8]	logD [9]	hepatocyte CLint [10]	solubility ([6]; buffer)	CLH ([10]; hepatocytes)	CLH ([4]; microsomes)
CC(=O)N[C@@H]1CCC[C@H](C(=O)Nc2cc(-c3cnn4c3OCCC4)c(Cl)cn2)C1				< 3 µL/min/mg	350 nM	110 µM (≈ 46 µg/mL)	110 nM	260 nM	2.6	34 µL/min/1e6 cells			
CC(=O)N[C@@H]1CCC[C@H](C(=O)Nc2cc(-c3cn[nH]c3CCCCO)c(Cl)cn2)C1	Active	Active	2.9 µL/min/1e6 cells	15 µL/min/mg	> 2000 nM								
CC1(C)Cc2c(-c3cc(NC(=O)[C@H]4C[C@@H](O)C4)ncc3Cl)cnn2C1			106 µL/min/1e6 cells	25 µL/min/mg	44 nM	15 µM (≈ 5.41 µg/mL)		38 nM	3.2	157 µL/min/1e6 cells			
CC(=O)N[C@@H]1CCC[C@H](C(=O)Nc2cc(-c3cnn4c3CC(C)(C)CC4)c(F)cn2)C1			23 µL/min/1e6 cells	178 µL/min/mg	10 nM	160 µM (≈ 68.4 µg/mL)	< 3 nM	15 nM	3.6	42 µL/min/1e6 cells			
CC(=O)N[C@@H]1CCC[C@H](C(=O)Nc2cc(-c3cnc4n3CCCC4)c(Cl)cn2)C1				16 µL/min/mg	1200 nM	600 µM (≈ 250 µg/mL)	660 nM	1200 nM	2.7	12 µL/min/1e6 cells			
CC(=O)N[C@@H]1CCC[C@H](C(=O)Nc2cc(-c3cnn4c3CC(C)(C)C4)ccn2)C1			< 1 µL/min/1e6 cells	< 3 µL/min/mg	150 nM	970 µM (≈ 384 µg/mL)	29 nM	100 nM	2.8	45 µL/min/1e6 cells			
CC(=O)N[C@@H]1CCC[C@H](C(=O)Nc2cc(-c3cnn4c3COCC4)c(Cl)cn2)C1				< 3 µL/min/mg	2100 nM	220 µM (≈ 91.9 µg/mL)	1000 nM	1900 nM	2.4	18 µL/min/1e6 cells			
CC(=O)N[C@@H]1CCC[C@H](C(=O)Nc2cc(-c3cnn4c3CC(C)(C)C4O)c(Cl)cn2)C1 (stereo not given in full)			48 µL/min/1e6 cells	14 µL/min/mg	170 nM		20 nM						
CC(=O)N[C@@H]1CCC[C@H](C(=O)Nc2cc(-c3cnn4c3CC(C)(C)C4)c(C)cn2)C1				19 µL/min/mg		600 µM (≈ 246 µg/mL)			3.1	53 µL/min/1e6 cells			
CC(=O)N[C@@H]1CCC[C@H](C(=O)Nc2cc(-c3cnn4c3CCC4)c(Cl)cn2)C1				< 3 µL/min/mg	530 nM	160 µM (≈ 64.3 µg/mL)	180 nM	330 nM	2.9	72 µL/min/1e6 cells			
CC(=O)N[C@@H]1CCC[C@H](C(=O)Nc2cc(-c3cnn4c3CC(C)C4)c(Cl)cn2)C1 (stereo in doubt; 27)					77 nM		27 nM	77 nM			159 µM (≈ 66.1 µg/mL)	85 µL/min	18 µL/min/mg
CC(=O)N[C@@H]1CCC[C@H](C(=O)Nc2cc(-c3cnc4ccccn34)c(Cl)cn2)C1					1600 nM	120 µM (≈ 49.4 µg/mL)	750 nM		3				
CC(=O)N[C@@H]1CCC[C@H](C(=O)Nc2cc(-c3cnn4c3CCCCC4)c(Cl)cn2)C1			4.6 µL/min/1e6 cells	39 µL/min/mg	92 nM	104 µM (≈ 44.7 µg/mL)		180 nM	3.6	51 µL/min/1e6 cells			
CC(=O)N[C@@H]1CC[C@H](C(=O)Nc2cc(-c3cnn4c3CC(C)(C)C4)c(Cl)cn2)C1			5.8 µL/min/1e6 cells	38 µL/min/mg	40 nM	35 µM (≈ 14.6 µg/mL)		15 nM	3.5	97 µL/min/1e6 cells			
CC(=O)N[C@@H]1CCC[C@H](C(=O)Nc2cc(-c3cnc4n3CCC4)c(Cl)cn2)C1				9.7 µL/min/mg	760 nM	490 µM (≈ 197 µg/mL)	310 nM	700 nM	2.6	19 µL/min/1e6 cells			
